# Values quoted from earlier work as cited in patent publication US20130224268A1, “TOPICAL DELIVERY OF HORMONAL AND NON HORMONAL NANO FORMULATIONS, METHODS OF MAKING AND USING THE SAME” (NEWGEN BIOPHARMA CORP., priority 2012, published 2013).
# Tested on: hydroxyproline, a major constituent amino acid in collagen
# Settings: topical estradiol treatment
smiles,measurement,value
"C[C@]12CC[C@@H]3c4ccc(O)cc4CC[C@H]3[C@@H]1CC[C@@H]2O [estradiol, (17β)-estra-1,3,5(10)-triene-3,17-diol]",increase in hydroxyproline,38%
